The target in test [1] is T1, Matrix metalloproteinase-9 (Homo sapiens, UniProt P14780). The test can be described thus: Inhibition of MMP9.
Test [2] has as its target T2, Matrix metalloproteinase-14 (Homo sapiens, UniProt P50281). Kind of test: Inhibition of MMP14.
Test [3] deals with T3, Interstitial collagenase (Homo sapiens) (UniProt P03956).
T3 sequence (whole entry): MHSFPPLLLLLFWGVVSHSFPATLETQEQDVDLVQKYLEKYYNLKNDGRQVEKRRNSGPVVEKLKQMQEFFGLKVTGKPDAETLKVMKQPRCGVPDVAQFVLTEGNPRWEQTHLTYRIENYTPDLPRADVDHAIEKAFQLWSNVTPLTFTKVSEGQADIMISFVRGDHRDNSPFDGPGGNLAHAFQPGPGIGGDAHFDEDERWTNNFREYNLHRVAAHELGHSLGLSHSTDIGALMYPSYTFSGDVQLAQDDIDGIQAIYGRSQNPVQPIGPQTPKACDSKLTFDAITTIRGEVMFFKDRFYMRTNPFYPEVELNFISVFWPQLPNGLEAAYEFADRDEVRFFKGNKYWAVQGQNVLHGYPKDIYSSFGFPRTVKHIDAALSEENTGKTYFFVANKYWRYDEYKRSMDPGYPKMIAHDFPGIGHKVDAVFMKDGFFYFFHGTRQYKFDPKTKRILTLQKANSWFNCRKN
Kind of test: Inhibition of MMP1 up to 60 uM.

The target in test [4] is T4, Matrilysin (Homo sapiens) (UniProt P09237).
T4 sequence (whole entry): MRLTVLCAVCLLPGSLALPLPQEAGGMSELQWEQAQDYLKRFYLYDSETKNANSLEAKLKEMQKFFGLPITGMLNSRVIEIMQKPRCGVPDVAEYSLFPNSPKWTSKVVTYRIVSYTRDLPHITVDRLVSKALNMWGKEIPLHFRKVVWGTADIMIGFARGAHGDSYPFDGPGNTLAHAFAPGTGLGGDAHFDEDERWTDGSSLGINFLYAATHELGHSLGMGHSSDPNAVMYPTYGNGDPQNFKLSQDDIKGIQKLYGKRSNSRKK
Kind of test: Inhibition of MMP7 up to 60 uM.

Test [5] concerns the target T5, 72 kDa type IV collagenase (Homo sapiens, UniProt P08253).
Target sequence in this assay (P08253 whole entry): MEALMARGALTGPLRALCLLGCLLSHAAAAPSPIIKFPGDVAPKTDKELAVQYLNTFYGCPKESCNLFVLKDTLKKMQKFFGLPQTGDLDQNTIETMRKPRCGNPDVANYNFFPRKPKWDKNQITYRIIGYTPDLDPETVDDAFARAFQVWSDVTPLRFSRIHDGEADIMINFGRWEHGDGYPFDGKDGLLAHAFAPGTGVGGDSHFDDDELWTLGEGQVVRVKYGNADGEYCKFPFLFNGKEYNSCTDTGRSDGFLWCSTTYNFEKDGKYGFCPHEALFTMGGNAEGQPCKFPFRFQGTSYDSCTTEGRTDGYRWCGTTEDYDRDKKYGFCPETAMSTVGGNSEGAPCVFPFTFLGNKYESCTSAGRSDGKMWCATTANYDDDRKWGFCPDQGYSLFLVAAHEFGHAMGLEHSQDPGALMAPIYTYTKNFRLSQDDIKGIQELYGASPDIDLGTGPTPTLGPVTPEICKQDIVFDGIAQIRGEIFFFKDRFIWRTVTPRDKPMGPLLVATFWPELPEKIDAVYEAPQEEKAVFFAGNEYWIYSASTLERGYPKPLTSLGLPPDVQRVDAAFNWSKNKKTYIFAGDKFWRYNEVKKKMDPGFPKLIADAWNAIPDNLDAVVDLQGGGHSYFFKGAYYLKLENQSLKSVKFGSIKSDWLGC
The target in test [6] is T6, Stromelysin-1 (Homo sapiens, UniProt P08254).
Target sequence in this assay (P08254 whole entry): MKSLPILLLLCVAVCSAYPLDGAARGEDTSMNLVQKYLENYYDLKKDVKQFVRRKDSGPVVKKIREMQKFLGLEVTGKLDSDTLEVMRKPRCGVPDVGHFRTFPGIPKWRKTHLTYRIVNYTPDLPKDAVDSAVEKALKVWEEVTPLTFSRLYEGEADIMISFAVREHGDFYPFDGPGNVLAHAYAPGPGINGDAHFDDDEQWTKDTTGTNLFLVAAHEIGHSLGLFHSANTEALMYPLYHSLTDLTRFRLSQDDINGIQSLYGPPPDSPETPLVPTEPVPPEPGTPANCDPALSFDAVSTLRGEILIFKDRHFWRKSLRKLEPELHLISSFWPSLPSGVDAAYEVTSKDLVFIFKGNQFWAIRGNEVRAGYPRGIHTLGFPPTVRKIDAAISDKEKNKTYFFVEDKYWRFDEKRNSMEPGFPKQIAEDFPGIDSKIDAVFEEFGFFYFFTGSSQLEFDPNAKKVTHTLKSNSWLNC
In test [7] the target is A disintegrin and metalloproteinase with thrombospondin motifs 1 (Homo sapiens, UniProt Q9UHI8). Kind of test: Inhibition of ADAMTS1.
Test [8] has as its target A disintegrin and metalloproteinase with thrombospondin motifs 5 (Homo sapiens, UniProt Q9UNA0). The test can be described thus: Inhibition of ADAMTS5.
Test [9] concerns the target T7, Disintegrin and metalloproteinase domain-containing protein 10 (Homo sapiens, UniProt O14672).
T7 sequence (O14672 whole entry): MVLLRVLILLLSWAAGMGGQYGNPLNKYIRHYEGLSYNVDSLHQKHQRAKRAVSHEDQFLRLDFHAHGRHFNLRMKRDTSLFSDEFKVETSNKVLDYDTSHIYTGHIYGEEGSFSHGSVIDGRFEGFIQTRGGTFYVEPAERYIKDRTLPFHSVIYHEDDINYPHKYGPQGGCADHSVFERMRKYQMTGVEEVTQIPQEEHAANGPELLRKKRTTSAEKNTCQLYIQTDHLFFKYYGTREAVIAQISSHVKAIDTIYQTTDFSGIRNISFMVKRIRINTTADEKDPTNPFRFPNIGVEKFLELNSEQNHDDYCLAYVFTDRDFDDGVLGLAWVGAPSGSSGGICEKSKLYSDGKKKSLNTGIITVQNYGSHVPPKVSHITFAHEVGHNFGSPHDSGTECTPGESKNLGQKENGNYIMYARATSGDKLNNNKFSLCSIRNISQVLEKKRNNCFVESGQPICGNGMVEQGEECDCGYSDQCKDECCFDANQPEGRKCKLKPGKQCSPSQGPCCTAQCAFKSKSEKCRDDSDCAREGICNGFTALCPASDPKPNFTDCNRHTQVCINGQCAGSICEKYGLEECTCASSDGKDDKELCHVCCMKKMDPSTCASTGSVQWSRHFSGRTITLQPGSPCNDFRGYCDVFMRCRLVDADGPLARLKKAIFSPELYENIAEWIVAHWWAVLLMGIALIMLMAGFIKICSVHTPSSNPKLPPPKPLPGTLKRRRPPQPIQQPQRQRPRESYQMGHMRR
The test can be described thus: Inhibition of ADAM10.

Test [10] has as its target Disintegrin and metalloproteinase domain-containing protein 17 (Sus scrofa, UniProt O77636). The test can be described thus: Inhibition of pig TACE.
Test [11] concerns the target T8, Neutrophil collagenase (Homo sapiens, UniProt P22894). The test can be described thus: Inhibition of MMP8.
Target sequence in this assay (P22894 whole entry): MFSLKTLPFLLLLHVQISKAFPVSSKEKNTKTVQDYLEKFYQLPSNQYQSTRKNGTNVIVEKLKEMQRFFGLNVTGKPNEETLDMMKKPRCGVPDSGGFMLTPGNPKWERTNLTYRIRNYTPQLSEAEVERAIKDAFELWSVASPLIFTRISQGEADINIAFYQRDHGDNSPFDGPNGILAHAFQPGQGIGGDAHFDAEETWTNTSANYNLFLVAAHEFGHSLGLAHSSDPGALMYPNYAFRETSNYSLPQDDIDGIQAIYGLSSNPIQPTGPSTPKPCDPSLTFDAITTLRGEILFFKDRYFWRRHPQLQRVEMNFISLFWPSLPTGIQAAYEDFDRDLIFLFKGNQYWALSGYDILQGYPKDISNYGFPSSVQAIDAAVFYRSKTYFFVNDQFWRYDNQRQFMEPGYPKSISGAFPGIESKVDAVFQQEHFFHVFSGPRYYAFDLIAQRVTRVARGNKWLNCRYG
In another test the target is Collagenase 3 (Homo sapiens, UniProt P45452). Kind of test: Inhibition of MMP13.
In another test the target is Stromelysin-2 (Homo sapiens, UniProt P09238). Kind of test: Inhibition of MMP10.
In a further test the target is T9, Interstitial collagenase (Homo sapiens, UniProt P03956).
T9 sequence (P03956 whole entry): T3 sequence (whole entry)

In test [12] the target is Matrix metalloproteinase-15 (Homo sapiens, UniProt P51511).
The target of test [13] is T10, Macrophage metalloelastase (Homo sapiens, UniProt P39900). The test can be described thus: Inhibition of MMP12.
Test [14] in a line: Selectivity for pig TACE over MMP1.
Test [15] is described as follows: Selectivity for pig TACE over MMP2.
The nature of test [16]: Selectivity for pig TACE over MMP3.
The nature of test [17]: Selectivity for pig TACE over MMP7.
Test [18] can be described thus: Selectivity for pig TACE over MMP8.
Test [19] can be described thus: Selectivity for pig TACE over MMP9.
In test [20] the target is Matrix metalloproteinase-16 (Homo sapiens, UniProt P51512). The test can be described thus: Inhibition of MMP16.
Test [21] can be described thus: Inhibition of bovine aggrecanase. Further details: species or system Bos taurus.
Test [22] can be described thus: Selectivity for bovine aggrecanase over MMP1.
Test [23] in a line: Selectivity for bovine aggrecanase over MMP2.
Test [24] has as its target T3, Interstitial collagenase (Homo sapiens). Kind of test: Inhibition of MMP1 at 100 uM.
Test [25] addresses T5, 72 kDa type IV collagenase. The test can be described thus: Inhibition of MMP2 up to 100 uM.
Test [26] has as its target T6, Stromelysin-1. The test can be described thus: Inhibition of MMP3 up to 100 uM.
The target in test [27] is T4, Matrilysin (Homo sapiens). The test can be described thus: Inhibition of MMP7 up to 100 uM.
The target of test [28] is T8, Neutrophil collagenase. Kind of test: Inhibition of MMP8 up to 100 uM.
Test [29] deals with T1, Matrix metalloproteinase-9. The test can be described thus: Inhibition of MMP9 up to 100 uM.
Test [30] has as its target T10, Macrophage metalloelastase. Kind of test: Inhibition of MMP12 up to 100 uM.
In test [31] the target is T2, Matrix metalloproteinase-14. The test can be described thus: Inhibition of MMP14 up to 100 uM.
Test [32] has as its target T11, Matrix metalloproteinase-17 (Homo sapiens) (UniProt Q9ULZ9).
T11 sequence (whole entry): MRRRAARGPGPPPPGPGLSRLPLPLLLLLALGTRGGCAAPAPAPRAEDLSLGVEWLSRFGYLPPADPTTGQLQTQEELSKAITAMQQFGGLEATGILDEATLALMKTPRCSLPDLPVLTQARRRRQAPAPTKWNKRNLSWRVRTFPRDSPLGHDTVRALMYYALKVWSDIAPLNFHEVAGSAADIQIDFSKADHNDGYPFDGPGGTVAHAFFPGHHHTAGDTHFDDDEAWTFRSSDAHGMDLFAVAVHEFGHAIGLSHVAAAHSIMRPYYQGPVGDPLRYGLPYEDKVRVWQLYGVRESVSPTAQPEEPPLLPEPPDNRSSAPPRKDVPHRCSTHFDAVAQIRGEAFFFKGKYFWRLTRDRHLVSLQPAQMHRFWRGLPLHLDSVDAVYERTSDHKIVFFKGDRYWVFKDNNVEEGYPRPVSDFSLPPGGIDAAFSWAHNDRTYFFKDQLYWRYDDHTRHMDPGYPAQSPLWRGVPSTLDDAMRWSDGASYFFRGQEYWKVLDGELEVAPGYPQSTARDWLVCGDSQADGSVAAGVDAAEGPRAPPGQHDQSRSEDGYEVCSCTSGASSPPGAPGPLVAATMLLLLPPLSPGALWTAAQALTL
Kind of test: Inhibition of MMP17 up to 100 uM.

The source made the active and inactive calls. The calls are words filed in the database; no cut-off is given here. Some results are limits rather than exact numbers.

What is called Ki is a dissociation constant, usually derived from enzyme kinetics or from competition with a known ligand. A high value points to lower affinity. What is called IC50 is the midpoint of a concentration-inhibition curve. Read a low IC50 as greater potency in that assay.

T1 sequence (P14780 whole entry): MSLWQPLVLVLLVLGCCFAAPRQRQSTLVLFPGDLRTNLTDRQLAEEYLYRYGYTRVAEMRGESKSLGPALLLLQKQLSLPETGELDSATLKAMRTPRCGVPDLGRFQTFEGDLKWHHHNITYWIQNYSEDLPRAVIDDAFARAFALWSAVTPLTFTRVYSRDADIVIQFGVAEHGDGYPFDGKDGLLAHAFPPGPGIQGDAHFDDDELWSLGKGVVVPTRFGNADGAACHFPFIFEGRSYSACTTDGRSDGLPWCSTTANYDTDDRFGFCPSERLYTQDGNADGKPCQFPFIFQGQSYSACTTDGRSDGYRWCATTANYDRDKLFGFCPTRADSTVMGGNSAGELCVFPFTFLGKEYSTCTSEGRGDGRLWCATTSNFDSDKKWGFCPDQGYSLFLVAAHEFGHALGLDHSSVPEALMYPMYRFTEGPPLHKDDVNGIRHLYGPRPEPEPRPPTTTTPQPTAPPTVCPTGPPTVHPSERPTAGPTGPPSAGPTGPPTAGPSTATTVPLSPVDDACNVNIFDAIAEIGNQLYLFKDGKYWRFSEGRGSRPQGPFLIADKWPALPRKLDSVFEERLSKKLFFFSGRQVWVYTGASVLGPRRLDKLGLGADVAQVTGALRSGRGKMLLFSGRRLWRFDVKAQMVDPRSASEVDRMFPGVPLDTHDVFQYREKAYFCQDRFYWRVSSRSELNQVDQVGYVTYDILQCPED
Sequence of Stromelysin-2 (P09238 whole entry): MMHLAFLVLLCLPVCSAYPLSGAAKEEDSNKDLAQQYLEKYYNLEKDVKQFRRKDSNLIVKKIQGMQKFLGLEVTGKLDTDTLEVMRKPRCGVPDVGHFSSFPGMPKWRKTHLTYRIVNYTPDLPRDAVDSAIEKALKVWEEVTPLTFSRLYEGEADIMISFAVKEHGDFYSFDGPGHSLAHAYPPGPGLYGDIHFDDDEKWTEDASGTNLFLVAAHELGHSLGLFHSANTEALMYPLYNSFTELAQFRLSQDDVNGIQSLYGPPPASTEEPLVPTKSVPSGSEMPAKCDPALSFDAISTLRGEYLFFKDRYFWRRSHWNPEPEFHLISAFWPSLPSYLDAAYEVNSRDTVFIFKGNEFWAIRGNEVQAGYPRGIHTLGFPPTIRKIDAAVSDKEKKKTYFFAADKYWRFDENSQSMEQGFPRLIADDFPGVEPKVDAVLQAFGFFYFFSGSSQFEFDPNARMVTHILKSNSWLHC
Sequence of Matrix metalloproteinase-15 (P51511 whole entry): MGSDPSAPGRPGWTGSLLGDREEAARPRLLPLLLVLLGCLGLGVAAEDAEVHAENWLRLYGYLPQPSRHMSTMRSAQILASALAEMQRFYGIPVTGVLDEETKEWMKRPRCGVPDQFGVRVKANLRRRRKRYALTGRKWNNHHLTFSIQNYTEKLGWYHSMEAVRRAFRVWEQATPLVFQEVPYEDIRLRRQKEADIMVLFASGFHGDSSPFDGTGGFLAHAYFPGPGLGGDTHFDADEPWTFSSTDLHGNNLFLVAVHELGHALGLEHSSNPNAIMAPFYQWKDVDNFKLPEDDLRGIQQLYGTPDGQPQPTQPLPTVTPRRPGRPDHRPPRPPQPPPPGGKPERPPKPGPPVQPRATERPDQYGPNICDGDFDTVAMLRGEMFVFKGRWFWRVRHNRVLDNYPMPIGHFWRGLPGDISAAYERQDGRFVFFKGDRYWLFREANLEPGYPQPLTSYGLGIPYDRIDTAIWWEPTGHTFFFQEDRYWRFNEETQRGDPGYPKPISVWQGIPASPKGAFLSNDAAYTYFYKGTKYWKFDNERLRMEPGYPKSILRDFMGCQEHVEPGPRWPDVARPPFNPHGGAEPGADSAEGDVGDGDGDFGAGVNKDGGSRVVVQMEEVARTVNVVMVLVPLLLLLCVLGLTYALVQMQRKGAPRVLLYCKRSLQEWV
Sequence of A disintegrin and metalloproteinase with thrombospondin motifs 5 (Q9UNA0 whole entry, the tested form may be a part): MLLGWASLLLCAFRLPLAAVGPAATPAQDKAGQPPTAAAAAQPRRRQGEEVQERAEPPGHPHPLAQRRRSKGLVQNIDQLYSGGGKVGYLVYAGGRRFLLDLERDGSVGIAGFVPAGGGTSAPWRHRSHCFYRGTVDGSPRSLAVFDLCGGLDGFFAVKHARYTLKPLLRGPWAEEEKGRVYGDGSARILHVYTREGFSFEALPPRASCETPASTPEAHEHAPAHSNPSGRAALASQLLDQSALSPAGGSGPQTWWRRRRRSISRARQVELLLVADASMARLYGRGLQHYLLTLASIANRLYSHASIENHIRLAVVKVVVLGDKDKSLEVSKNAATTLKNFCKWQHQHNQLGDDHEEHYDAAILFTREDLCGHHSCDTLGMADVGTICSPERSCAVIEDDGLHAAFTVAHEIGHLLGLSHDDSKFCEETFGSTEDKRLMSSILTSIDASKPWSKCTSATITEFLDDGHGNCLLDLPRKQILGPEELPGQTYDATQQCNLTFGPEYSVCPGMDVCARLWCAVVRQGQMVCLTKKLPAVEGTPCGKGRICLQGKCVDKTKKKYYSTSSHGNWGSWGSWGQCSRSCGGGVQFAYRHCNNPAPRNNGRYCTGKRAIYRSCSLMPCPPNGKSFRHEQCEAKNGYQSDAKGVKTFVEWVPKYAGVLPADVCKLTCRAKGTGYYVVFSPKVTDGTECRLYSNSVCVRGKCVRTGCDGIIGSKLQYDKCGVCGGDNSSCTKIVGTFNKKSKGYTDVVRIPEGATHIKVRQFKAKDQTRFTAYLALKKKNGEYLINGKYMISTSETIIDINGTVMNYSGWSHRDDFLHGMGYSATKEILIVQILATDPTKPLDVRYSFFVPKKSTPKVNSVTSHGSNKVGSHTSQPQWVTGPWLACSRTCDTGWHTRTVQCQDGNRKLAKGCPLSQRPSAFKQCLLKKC
Sequence of Matrix metalloproteinase-16 (P51512 whole entry): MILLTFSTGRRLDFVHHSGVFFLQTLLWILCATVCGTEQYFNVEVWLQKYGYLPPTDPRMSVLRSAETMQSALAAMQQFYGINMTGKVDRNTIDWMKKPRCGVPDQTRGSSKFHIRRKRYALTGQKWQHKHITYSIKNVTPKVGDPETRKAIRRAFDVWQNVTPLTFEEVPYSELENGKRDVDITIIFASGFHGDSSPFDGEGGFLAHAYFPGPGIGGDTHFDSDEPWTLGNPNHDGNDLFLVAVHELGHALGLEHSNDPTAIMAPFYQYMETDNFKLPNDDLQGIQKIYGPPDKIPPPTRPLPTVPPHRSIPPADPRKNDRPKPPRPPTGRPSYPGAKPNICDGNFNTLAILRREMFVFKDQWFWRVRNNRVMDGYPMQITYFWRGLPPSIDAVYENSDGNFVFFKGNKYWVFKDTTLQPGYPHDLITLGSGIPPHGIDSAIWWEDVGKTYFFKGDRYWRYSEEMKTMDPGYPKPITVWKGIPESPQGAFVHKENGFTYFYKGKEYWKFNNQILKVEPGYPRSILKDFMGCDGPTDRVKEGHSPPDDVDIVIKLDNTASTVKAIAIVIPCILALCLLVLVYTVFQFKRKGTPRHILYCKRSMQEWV

In the case of `O=S(=O)(CCC(S)CS)c1ccc(Oc2ccccc2)cc1` (stereo not drawn), the Ki in test [1] stood at 0.1 µM; in test [2], 0.21 µM; in [5] it was 0.046 µM; at Stromelysin-1 [6], 10 µM. The result in test [3] and in test [4] was inactive.

As to `Cc1cc(COc2ccc(C(=O)N[C@@]3(CC(=O)NO)C[C@@H](C)N[C@@H](C)C3)cc2)c2ccccc2n1`, the Ki is 7.8 µM in [7]; 1.9 µM in test [8]; above 3 µM in test [9]; 0.0028 µM in test [10]; 2.05 µM at Neutrophil collagenase [11]; above 5 µM at Collagenase 3. The Ki was above 3 µM in test [1]; 0.163 µM in [2]; 1.65 µM at Stromelysin-2; above 5 µM at Interstitial collagenase; above 3 µM in test [5]; 0.762 µM at Stromelysin-1 [6]. The same molecule registered a Ki in test [12] of 1.7 µM.

For the molecule `O=C(N[C@@H]1CCOC[C@@H]1C(=O)NO)c1ccc(Cn2c(C(F)(F)F)nc3ccccc32)cc1`, the Ki in test [8] is 1.9 µM.

Take `O=C1NCCCC[C@@H](C(=O)NCC(=O)N2CCOCC2)NC(=O)[C@H](Cc2ccc(-c3ccccc3C(F)(F)F)cc2)[C@@H](C(=O)NO)CCCO1`: the Ki on Neutrophil collagenase [11] is 0.2 µM; in test [1], above 2 µM; in test [2] it was above 2 µM; in [13] it was above 2 µM; in [20] it was above 2 µM; at Stromelysin-2 it was above 2 µM. The Ki (at Interstitial collagenase; in [5]; at Stromelysin-1 [6]; in test [12]) was above 2 µM in each case. For the same molecule, the fold change (FC) in [14] is above 100; in test [15], above 100; in test [16], above 100; in test [17], above 100; in test [18] it was 45; in test [19], above 100.

Turning to `CS(=O)(=O)N1CCC([C@H](C(=O)NO)[C@@H](Cc2cccc(O)c2)C(=O)N[C@H]2c3ccccc3C[C@H]2O)CC1`, 0.003 µM corresponded to half-maximal inhibition in [21] (IC50). For the same molecule, the fold change (FC) in test [22] and in test [23] was above 100 throughout.

Regarding `O=C(OCc1ccccc1)c1cn2c(=O)n(Cc3ccccc3)c(=O)cc2s1`, the result (in test [24]; in test [25]; at Stromelysin-1 [26]; in test [27]; on Neutrophil collagenase [28]; in test [29]) was inactive. Also, the result in test [30], in test [31] and in test [32] was inactive.

For the origin of these results see ChEMBL document CHEMBL1141723, “Specific targeting of metzincin family members with small-molecule inhibitors: progress toward a multifarious challenge” (Bioorg Med Chem, 2008).
